Where a name gives a salt, the structure may show the parent alone. Active and inactive are the calls of the source. No cut-off for these calls is given here.
target: Glutathione hydrolase 1 proenzyme (Rattus norvegicus, UniProt P07314); test: Inhibition of Rattus norvegicus Wistar (rat) rat Gamma-glutamyltranspeptidase using L-gamma-glutamyl-p-nitroanilide as substrate incubated for 15 min prior to substrate addition by spectrophotometric analysis
Sequence (P07314 1-379 limits assumed): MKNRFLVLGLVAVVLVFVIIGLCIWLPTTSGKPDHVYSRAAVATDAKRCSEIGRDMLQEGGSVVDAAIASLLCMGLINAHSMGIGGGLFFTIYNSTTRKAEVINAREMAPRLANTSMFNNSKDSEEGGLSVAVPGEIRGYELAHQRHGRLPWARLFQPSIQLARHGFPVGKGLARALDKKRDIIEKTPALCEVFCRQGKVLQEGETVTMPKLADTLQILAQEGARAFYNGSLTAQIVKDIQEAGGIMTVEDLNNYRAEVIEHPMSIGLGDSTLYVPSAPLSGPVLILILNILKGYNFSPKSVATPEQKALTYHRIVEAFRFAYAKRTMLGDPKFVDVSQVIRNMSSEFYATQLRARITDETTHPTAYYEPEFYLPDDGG
Sequence (P07314 380-568 limits assumed): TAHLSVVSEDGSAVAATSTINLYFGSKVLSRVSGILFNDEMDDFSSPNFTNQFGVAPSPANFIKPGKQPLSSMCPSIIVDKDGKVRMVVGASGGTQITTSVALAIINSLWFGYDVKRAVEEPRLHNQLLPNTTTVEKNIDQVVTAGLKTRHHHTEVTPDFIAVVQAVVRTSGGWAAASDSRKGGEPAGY

Ki | SMILES
50 µM | N[C@@H](CO)C(=O)O [SERINE]

tested on: Setaria cervi; test: Antifilarial activity against Setaria cervi assessed as change in GSH level at 250 uM after 6 hr by RP-HPLC analysis; type: functional

SMILES | Activity
O=NN(CCCl)C(=O)NCCCl [CARMUSTINE] | 68.97%
CC1(C)O[C@@H]2O[C@@H](CNCCCCCCCNC[C@H]3O[C@@H]4OC(C)(C)O[C@@H]4[C@H]3OCc3ccccc3)[C@@H](OCc3ccccc3)[C@@H]2O1 | 69.29%
CCCCCCCCCCCCCC(=O)Oc1ccc2c(C)cc(=O)oc2c1 | inactive
CO[C@@H]1[C@H]2OC(C)(C)O[C@H]2O[C@@H]1CNCCCCCCCCCCCCNC[C@@H]1O[C@H]2OC(C)(C)O[C@H]2[C@@H]1OC (stereo in doubt) | 39%
CCCCS(=N)(=O)CC[C@H](N)C(=O)O (some centres not stated) [BUTHIONINE SULFOXIME] | 35.78%
Cc1cc(C)c2c(C)cc(=O)oc2c1 | 65%
CCOC(=O)CC(NCCCCCCCCCCNC(CC(=O)OCC)[C@@H]1O[C@H]2OC(C)(C)O[C@H]2[C@@H]1OCc1ccccc1)[C@H]1O[C@@H]2OC(C)(C)O[C@@H]2[C@H]1OCc1ccccc1 (some centres not stated) | 58.17%
CCOC(=O)CC(NCCCCCCCCCCCCNC(CC(=O)OCC)[C@@H]1O[C@H]2OC(C)(C)O[C@H]2[C@@H]1OC)[C@H]1O[C@@H]2OC(C)(C)O[C@@H]2[C@H]1OC (stereo in doubt) | 37.43%
CC1(C)O[C@@H]2O[C@@H](CNCCCCCCCCCCCCNC[C@H]3O[C@@H]4OC(C)(C)O[C@@H]4[C@H]3OCc3ccccc3)[C@@H](OCc3ccccc3)[C@@H]2O1 | 60%
COC(=O)/C=C\C(=O)OC [DIMETHYL MALEATE] | 95.82%
CN(C)c1ccc2nc3ccc(N(C)C)cc3[s+]c2c1.[Cl-] [METHYLENE BLUE ANHYDROUS] | 34.68%
CC(C)=CC(=O)C=C(C)C [PHORONE] | 93.7%
CCOC(=O)CC(NCCCNC(CC(=O)OCC)[C@@H]1O[C@H]2OC(C)(C)O[C@H]2[C@@H]1OCc1ccccc1)C1O[C@@H]2OC(C)(C)OC2[C@H]1OCc1ccccc1 (single isomer, unassigned) | 59.12%
CCCc1cc(=O)oc2cc(OCC(=O)OCC)ccc12 | 5.75%
CCOC(=O)CC(NCCCCCCCCCCNC(CC(=O)OCC)[C@@H]1O[C@H]2OC(C)(C)O[C@H]2[C@@H]1OC)[C@H]1O[C@@H]2OC(C)(C)O[C@@H]2[C@H]1OC (some centres not stated) | 48%
CO[C@H]1[C@@H](CNCCCCCCCNC[C@@H]2O[C@H]3OC(C)(C)OC3[C@@H]2OC)OC2OC(C)(C)O[C@@H]21 (single isomer, unassigned) | 52.54%
CCOC(=O)CC(NCCCCCCCNC(CC(=O)OCC)[C@H]1O[C@@H]2OC(C)(C)OC2[C@H]1OCc1ccccc1)C1OC2OC(C)(C)O[C@H]2[C@@H]1OCc1ccccc1 (single isomer, unassigned) | 15.9%
Cc1cc2oc(=O)cc(C)c2cc1C | 42.07%
CCOC(=O)CC(NCCCCCCCCCCCCNC(CC(=O)OCC)[C@@H]1O[C@H]2OC(C)(C)O[C@H]2[C@@H]1OCc1ccccc1)[C@H]1O[C@@H]2OC(C)(C)O[C@@H]2[C@H]1OCc1ccccc1 (some centres not stated) | 67%
CCOC(=O)CC(NCCCNC(CC(=O)OCC)[C@@H]1O[C@H]2OC(C)(C)O[C@H]2[C@@H]1OC)[C@H]1O[C@@H]2OC(C)(C)O[C@@H]2[C@H]1OC (some centres not stated) | 14.55%
Cc1cc(=O)oc2cc(OCC(=O)NC3CCCCC3)ccc12 | 46%
CC1(C)O[C@@H]2O[C@@H](CNCCCCCCCCCCNC[C@H]3O[C@@H]4OC(C)(C)O[C@@H]4[C@H]3OCc3ccccc3)[C@@H](OCc3ccccc3)[C@@H]2O1 | 52.5%
CC1=CC(=O)c2ccccc2C1=O [MENADIONE] | 96.04%
Cc1cc(=O)oc2cc(OCC(=O)NCCCCCCCCCCCCN)ccc12 | 3.22%
CCOC(=O)CC(NCCCCCCCNC(CC(=O)OCC)[C@@H]1O[C@H]2OC(C)(C)O[C@H]2[C@@H]1OC)[C@H]1O[C@@H]2OC(C)(C)O[C@@H]2[C@H]1OC (some centres not stated) | 39.04%
CO[C@@H]1[C@H]2OC(C)(C)O[C@H]2O[C@@H]1CNCCCCCCCCCCNC[C@@H]1O[C@H]2OC(C)(C)O[C@H]2[C@@H]1OC | 33.14%

Source: ChEMBL document CHEMBL3045945, “INHIBITORS OF FILARIAL GAMMA-GLUTAMYL CYCLE ENZYMES AS POSSIBLE MACROFILARICIDAL AGENTS” (Med Chem Res, 2004)
